From patent publication US20090012165A1, “PHARMACEUTICAL COMBINATION OF NSAID AND PROSTAGLANDIN COMPOUND” (priority 2007, published 2009)

System: naproxen-induced gastric ulcer
Experiment: naproxen-induced gastric ulcer in rats (ulcer index 5 hours after oral dosing)
Type: in vivo, Male Crl: CD (SD) rats
Conditions: for Ulcer Index (Mean ± S.E.): rats; for % Inhibition of ulcer index: vs vehicle + naproxen group
Protocol: Male Crl: […] The animal was euthanized by cervical dislocation 5 hours after administration of the dosing preparation, and the stomach was removed. The stomach was filled with 10 mL of saline and fixed in 1% formalin. Then the stomach was opened along the greater curvature and gently washed with saline. The length of the major axis of each gastric ulcer was measured with digital slide gauges, and the total length of the major axes of all gastric ulcers (ulcer index) was obtained.

CC[C@H](C)CC(F)(F)C(=O)CC[C@H]1[C@H](O)CC(=O)[C@@H]1CCCCCCC(=O)O [Compound A, 13,14-dihydro-15-keto-16,16-difluoro-18(S)-methyl-PGE1]
Ulcer Index (Mean ± S.E.) (Compound A 1 μg/kg + naproxen 200 mg/kg oral, 5 hours): 63.47 ± 10.87 | % Inhibition of ulcer index (Compound A 1 μg/kg + naproxen 200 mg/kg): 22% | Ulcer Index (Mean ± S.E.) (Compound A 10 μg/kg + naproxen 200 mg/kg oral, 5 hours, p<0.05 vs vehicle + naproxen): 12.15 ± 3.45 | % Inhibition of ulcer index (Compound A 10 μg/kg + naproxen 200 mg/kg): 85% | reduction of ulcer formation, significance (in words) (Compound A 10 μg/kg and 100 μg/kg + naproxen 200 mg/kg groups compared to vehicle + naproxen group): Significant reductions of ulcer formation | Ulcer Index (Mean ± S.E.) (Compound A 100 μg/kg + naproxen 200 mg/kg oral, 5 hours, p<0.01 vs vehicle + naproxen): 0.50 ± 0.40 | % Inhibition of ulcer index (Compound A 100 μg/kg + naproxen 200 mg/kg): 99.4% | ulcer formation induced by naproxen (in words) (Compound A at 1, 10 and 100 μg/kg with naproxen 200 mg/kg, dose-dependent): reduced | protective effect against ulcer formation in combination with NSAID (in words) (overall conclusion of Example 1): potent protective effect against ulcer formation

Cc1c(OCC(F)(F)F)ccnc1C[S+]([O-])c1nc2ccccc2[nH]1 (stereo not shown) [Lansoprazole, lansoprazole, reference compound]
Ulcer Index (Mean ± S.E.) (Lansoprazole 1000 μg/kg + naproxen 200 mg/kg oral, 5 hours): 68.09 ± 7.61 | % Inhibition of ulcer index (Lansoprazole 1000 μg/kg + naproxen 200 mg/kg): 16% | effect on naproxen-induced gastric ulcers (in words) (lansoprazole 1000 μg/kg with naproxen): did not have a significant effect

COc1ccc2cc([C@H](C)C(=O)O)ccc2c1 [naproxen, reference compound]
Ulcer Index (Mean ± S.E.) (Vehicle (0.01% Tween 80) + naproxen 200 mg/kg oral, 5 hours after administration, n=10): 81.48 ± 15.05
